ChEMBL document CHEMBL5335864 (ACS Med Chem Lett, 2024)

Tested on: Plasmodium falciparum
Assay: Antiplasmodial activity against Plasmodium falciparum NF54 infected in human erythrocytes measured after 48 hrs by [3H]hypoxanthine incorporation assay
Assay type: functional, organism-based
Conditions: NF54, Erythrocyte

- IC50: 219 nM
Structure (SMILES): FC1CN(CCc2ccc(-c3noc(C(F)(F)F)n3)cc2)CCC1Nc1nc2ccccc2[nH]1 (stereo unspecified)
